Data published in patent US12187721B2, “Protein tyrosine phosphatase inhibitors” (Array BioPharma Inc., priority 2018, dated 2025).

These compounds were tested against T1, full-length SHP2 (His6-tagged SHP2(2-527)) (Homo sapiens, UniProt Q06124) (assay: SHP2 Enzymatic Assay (fluorescence intensity kinetic assay, DiFMUP hydrolysis)). Conditions: not given.
T1 construct: His6-tagged SHP2(2-527); His6; made in house; host or cells: E. coli
Format: biochemical
Outline: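 1 nM His6-SHP2(2-527), activated by 1 μM bis-phosphopeptide, hydrolysed 50 μM DiFMUP in 25 mM HEPES pH 7.4 with 1 mM DTT, 50 mM KCl and 2% DMSO. DiFMU fluorescence (Ex 355/Em 460 nm) was read kinetically for 15 min at ambient temperature.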

T1 sequence (Q06124 2-527): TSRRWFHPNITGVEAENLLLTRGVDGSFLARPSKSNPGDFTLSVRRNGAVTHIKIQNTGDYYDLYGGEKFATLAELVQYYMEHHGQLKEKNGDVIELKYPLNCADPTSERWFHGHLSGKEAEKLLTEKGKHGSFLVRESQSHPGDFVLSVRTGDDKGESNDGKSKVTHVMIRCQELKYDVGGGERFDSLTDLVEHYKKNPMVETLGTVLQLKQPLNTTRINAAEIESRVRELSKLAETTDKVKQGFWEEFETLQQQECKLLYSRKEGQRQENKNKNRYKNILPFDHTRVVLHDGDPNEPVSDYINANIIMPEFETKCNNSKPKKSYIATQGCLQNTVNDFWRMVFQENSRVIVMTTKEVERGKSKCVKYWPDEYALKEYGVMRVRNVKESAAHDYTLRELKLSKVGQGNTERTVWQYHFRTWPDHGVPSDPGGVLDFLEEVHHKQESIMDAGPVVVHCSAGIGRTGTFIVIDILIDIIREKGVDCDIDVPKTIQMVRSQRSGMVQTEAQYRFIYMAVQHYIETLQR

Compound | IC50 [nM]
C[C@@H]1OCC2(CCN(c3cnc4nc(Sc5c(F)cnc6[nH]ccc56)ccc4n3)CC2)[C@@H]1N [Example 141, (3S,4S)-8-(6-((5-fluoro-1H-pyrrolo[2,3-b]pyridin-4-yl)thio)pyrido[2,3-b]pyrazin-2-yl)-3-methyl-2-oxa-8-azaspiro[4.5]decan-4-amine] | 74
CC1CCN(c2cnc3nc(Sc4ccnc(N)c4Cl)ccc3n2)CC1 [Example 143, 3-chloro-4-((2-(4-methylpiperidin-1-yl)pyrido[2,3-b]pyrazin-6-yl)thio)pyridin-2-amine] | 1760
C[C@@H]1OCC2(CCN(c3cnc4nc(Sc5cc(N)ncc5Cl)ccc4n3)CC2)[C@@H]1N [Example 144, (3S,4S)-8-(6-((2-amino-5-chloropyridin-4-yl)thio)pyrido[2,3-b]pyrazin-2-yl)-3-methyl-2-oxa-8-azaspiro[4,5]decan-4-amine] | 89
CNc1nccc(Sc2ccc3nc(N4CCCC(C)(N)CC4)cnc3n2)c1Cl (centres unmarked) [Example 146, 1-(6-((3-chloro-2-(methylamino)pyridin-4-yl)thio)pyrido[2,3-b]pyrazin-2-yl)-4-methylazepan-4-amine] | 89
Cc1nccc(Sc2ccc3nc(N4CCCC(C)(N)CC4)cnc3n2)c1Cl (centres unmarked) [Example 147, 1-(6-((3-chloro-2-methylpyridin-4-yl)thio)pyrido[2,3-b]pyrazin-2-yl)-4-methylazepan-4-amine] | 50
CC1(N)CCN(c2cnc3nc(-c4cccc(F)c4Cl)ccc3n2)CC1 [Example 152, 1-(6-(2-chloro-3-fluorophenyl)pyrido[2,3-b]pyrazin-2-yl)-4-methylpiperidin-4-amine] | 30
COc1c(Sc2ccc3nc(N4CCC5(CC4)CO[C@@H](C)[C@H]5N)cnc3n2)ccnc1N [Example 153, (3S,4S)-8-(6-((2-amino-3-methoxypyridin-4-yl)thio)pyrido[2,3-b]pyrazin-2-yl)-3-methyl-2-oxa-8-azaspiro [4.5] decan-4-amine] | 164
Nc1nccc(Sc2ccc3nc(N4CCCC45CC(N)C5)cnc3n2)c1Cl (centres unmarked) [Example 154, 5-(6-((2-amino-3-chloropyridin-4-yl)thio)pyrido[2,3-b]pyrazin-2-yl)-5-azaspiro[3.4]octan-2-amine] | 1210
COc1cccc2c1CC1(CCN(c3cnc4nc(Sc5ccnc(N)c5Cl)ccc4n3)CC1)[C@@H]2N [Example 155] | 45
Cc1nccc(Sc2ccc3nc(N4CCC5(CC4)Cc4cc(O)ccc4[C@H]5N)cnc3n2)c1Cl [Example 156, (S)-1-amino-1′-(6-((3-chloro-2-methylpyridin-4-yl)thio)pyrido[2,3-b]pyrazin-2-yl)-1,3-dihydrospiro[indene-2,4′-piperidin]-5-ol] | 32
C[C@@H]1OCC2(CCN(c3cnc4nc(Sc5ccnc6c5CCC6O)ccc4n3)CC2)[C@@H]1N (stereo partly drawn) [Example 157, 4-((2-((3S,4S)-4-amino-3-methyl-2-oxa-8-azaspiro[4.5]decan-8-yl)pyrido[2,3-b]pyrazin-6-yl)thio)-6,7-dihydro-5H-cyclopenta[b]pyridin-7-ol] | 282
Nc1nccc(Sc2ccc3nc(N4CCC5(CC4)Cc4cccnc4C5N)cnc3n2)c1Cl (centres unmarked) [Example 158, 1′-(6-((2-amino-3-chloropyridin-4-yl)thio)pyrido[2,3-b]pyrazin-2-yl)-5,7-dihydrospiro[cyclopenta[b]pyridine-6,4′-piperidin]-7-amine] | 106
Nc1nccc(Sc2ccc3nc(N4CCC5(CC4)Cc4c(Cl)cccc4[C@H]5N)cnc3n2)c1Cl [Example 159, (S)-1′-(6-((2-amino-3-chloropyridin-4-yl)thio)pyrido[2,3-b]pyrazin-2-yl)-4-chloro-1,3-dihydrospiro[indene-2,4′-piperidin]-1-amine] | 50
CNc1nccc(Sc2ccc3nc(N4CCC(C)(N)CC4)cnc3n2)c1Cl [Example 161, 4-((2-(4-amino-4-methylpiperidin-1-yl)pyrido[2,3-b]pyrazin-6-yl)thio)-3-chloro-N-methylpyridin-2-amine] | 45
N[C@@H]1c2ccccc2CC12CCN(c1cnc3nc(Sc4cccnc4C(F)(F)F)ccc3n1)CC2 [Example 162, (S)-1′-(6-((2-(trifluoromethyl)pyridin-3-yl)thio)pyrido[2,3-b]pyrazin-2-yl)-1,3-dihydrospiro[indene-2,4′-piperidin]-1-amine] | 39
Nc1nccc(Sc2ccc3nc(N4CC5(Cc6ccccc6[C@@H]5N)C4)cnc3n2)c1Cl [Example 164, (S)-1-(6-((2-amino-3-chloropyridin-4-yl)thio)pyrido[2,3-b]pyrazin-2-yl)-1′,3′-dihydrospiro[azetidine-3,2′-inden]-1′-amine] | 203
Nc1nccc(Sc2ccc3nc(N4CCC5(CC4)c4ccccc4[C@H]5N)cnc3n2)c1Cl [Example 165, (S)-1′-(6-((2-amino-3-chloropyridin-4-yl)thio)pyrido[2,3-b]pyrazin-2-yl)spiro[bicyclo[4.2.0]octane-7,4′-piperidine]-1(6),2,4-trien-8-amine] | 16000
Nc1nccc(Sc2ccc3nc(N4CCC5(CC4)c4ccccc4[C@@H]5N)cnc3n2)c1Cl [Example 166, (R)-1′-(6-((2-amino-3-chloropyridin-4-yl)thio)pyrido[2,3-b]pyrazin-2-yl)spiro[bicyclo[4.2.0]octane-7,4′-piperidine]-1(6),2,4-trien-8-amine] | 3990
Nc1nccc(Sc2ccc3nc(N4CCC5(CC4)Cc4ncccc4[C@@H]5N)cnc3n2)c1Cl [Example 167, (R)-1′-(6-((2-amino-3-chloropyridin-4-yl)thio)pyrido[2,3-b]pyrazin-2-yl)-5,7-dihydrospiro[cyclopenta[b]pyridine-6,4′-piperidin]-5-amine] | 50
Cc1cccc2c1CC1(CCN(c3cnc4nc(Sc5ccnc(N)c5Cl)ccc4n3)CC1)[C@H]2N [Example 168, (R)-1′-(6-((2-amino-3-chloropyridin-4-yl)thio)pyrido[2,3-b]pyrazin-2-yl)-4-methyl-1,3-dihydrospiro[indene-2,4′-piperidin]-1-amine] | 54
Nc1nccc(Sc2ccc3nc(N4CCC5(CC4)Cc4cc(Cl)ccc4[C@@H]5N)cnc3n2)c1Cl [Example 170, (R)-1′-(6-((2-amino-3-chloropyridin-4-yl)thio)pyrido[2,3-b]pyrazin-2-yl)-5-chloro-1,3-dihydrospiro[indene-2,4′-piperidin]-1-amine] | 62
COc1nc(N)cc(Sc2ccc3nc(N4CCC5(CC4)Cc4ccccc4[C@H]5N)cnc3n2)c1Cl [Example 171, (S)-1′-(6-((6-amino-3-chloro-2-methoxypyridin-4-yl)thio)pyrido[2,3-b]pyrazin-2-yl)-1,3-dihydrospiro[indene-2,4′-piperidin]-1-amine] | 56
N#Cc1ccc2ncc(Sc3ccc4nc(N5CCC6(CC5)Cc5ccccc5[C@H]6N)cnc4n3)n2c1 [Example 172, (S)-3-((2-(1-amino-1,3-dihydrospiro[indene-2,4′-piperidin]-1′-yl)pyrido[2,3-b]pyrazin-6-yl)thio)imidazo[1,2-a]pyridine-6-carbonitrile] | 112
CCCC1(N)CCN(c2cnc3nc(Sc4ccnc(N)c4Cl)ccc3n2)CC1 [Example 173, 4-((2-(4-amino-4-propylpiperidin-1-yl)pyrido[2,3-b]pyrazin-6-yl)thio)-3-chloropyridin-2-amine] | 237
Cc1nccc(Sc2ccc3nc(N4CCC5(CC4)CO[C@@H](C)[C@H]5N)cnc3n2)c1C [Example 174, (3S,4S)-8-(6-((2,3-dimethylpyridin-4-yl)thio)pyrido[2,3-b]pyrazin-2-yl)-3-methyl-2-oxa-8-azaspiro[4.5]decan-4-amine] | 335
C[C@@H]1OCC2(CCN(c3cnc4nc(Sc5ccnc(N)c5F)ccc4n3)CC2)[C@@H]1N [Example 175, (3S,4S)-8-(6-((2-amino-3-fluoropyridin-4-yl)thio)pyrido[2,3-b]pyrazin-2-yl)-3-methyl-2-oxa-8-azaspiro[4.5]decan-4-amine] | 1230
C[C@@H]1OCC2(CCN(c3cnc4nc(Sc5ccc(N)nc5C(F)(F)F)ccc4n3)CC2)[C@@H]1N [Example 176, (3S,4S)-8-(6-((6-amino-2-(trifluoromethyl)pyridin-3-yl)thio)pyrido[2,3-b]pyrazin-2-yl)-3-methyl-2-oxa-8-azaspiro[4.5]decan-4-amine] | 109
C[C@@H]1OCC2(CCN(c3cnc4nc(Sc5ccnc(Cl)c5Cl)ccc4n3)CC2)[C@@H]1N [Example 177, (3S,4S)-8-(6-((2,3-dichloropyridin-4-yl)thio)pyrido[2,3-b]pyrazin-2-yl)-3-methyl-2-oxa-8-azaspiro[4.5]decan-4-amine] | 220
Cc1ccc2c(c1)[C@H](N)C1(CCN(c3cnc4nc(Sc5ccnc(N)c5Cl)ccc4n3)CC1)C2 [Example 179, (R)-1′-(6-((2-amino-3-chloropyridin-4-yl)thio)pyrido[2,3-b]pyrazin-2-yl)-6-methyl-1,3-dihydrospiro[indene-2,4′-piperidin]-1-amine] | 80
Nc1nccc(Sc2ccc3nc(N4CCC(N)(Cc5ccccn5)CC4)cnc3n2)c1Cl [Example 180, 4-((2-(4-amino-4-(pyridin-2-ylmethyl)piperidin-1-yl)pyrido[2,3-b]pyrazin-6-yl)thio)-3-chloropyridin-2-amine] | 274

Same assay, conditions: full-length SHP2 with 1 μM activating peptide, 50 μM DiFMUP; single assay or mean of multiple assays; read-out: Biological Example 1 IC50

Compound | IC50 [nM]
Nc1nccc(Sc2ccc3nc(N4CCC5(CC4)Cc4cc(F)ccc4[C@H]5N)cnc3n2)c1Cl [Example 145, (S)-1′-(6-((2-amino-3-chloropyridin-4-yl)thio)pyrido[2,3-b]pyrazin-2-yl)-5-fluoro-1,3-dihydrospiro[indene-2,4′-piperidin]-1-amine] | 27
Nc1nccc(Sc2ccc3nc(N4CCC5(CC4)C[C@@H](O)C[C@H]5N)cnc3n2)c1Cl [Example 160, (2R,4R)-4-amino-8-(6-((2-amino-3-chloropyridin-4-yl)thio)pyrido[2,3-b]pyrazin-2-yl)-8-azaspiro[4.5]decan-2-ol] | 60
